pKi: −log10 of the molar value. Where a name gives a salt, the structure may show the parent alone.
Target: T1, α2-Adrenoceptor (Homo sapiens, UniProt P08913)
T1 construct: from tissue; host or cells: human platelets (membranes)
T1 sequence (P08913 1-465): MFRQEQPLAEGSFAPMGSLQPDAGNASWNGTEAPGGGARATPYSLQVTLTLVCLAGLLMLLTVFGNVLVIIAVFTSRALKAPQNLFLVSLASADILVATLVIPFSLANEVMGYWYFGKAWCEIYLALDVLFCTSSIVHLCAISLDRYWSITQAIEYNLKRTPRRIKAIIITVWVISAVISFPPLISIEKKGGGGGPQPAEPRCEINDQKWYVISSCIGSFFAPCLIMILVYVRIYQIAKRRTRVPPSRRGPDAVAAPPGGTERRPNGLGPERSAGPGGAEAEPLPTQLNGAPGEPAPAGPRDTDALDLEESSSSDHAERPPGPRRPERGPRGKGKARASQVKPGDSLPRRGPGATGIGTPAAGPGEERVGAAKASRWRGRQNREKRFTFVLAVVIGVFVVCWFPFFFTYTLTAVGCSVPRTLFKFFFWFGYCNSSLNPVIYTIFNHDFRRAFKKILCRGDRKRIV
Assay: α2-Adrenoceptor Binding ([3H] Rauwolscine, human platelet membranes)
Conditions: [3H] Rauwolscine 0.5-1.0 nM, 30 minutes at 30° C., read-out: Binding Affinity. Ki
Experimental: (A) α2-Adrenoceptor Binding
Human platelet membranes were incubated with [^3 H] Rauwolscine (0.5-1.0 nM) for 30 minutes at 30° C. with varying concentrates of the drug (0.1-10,000 nM). The binding assay was stopped by filtering and rinsing on GF/B glass fibre filters. Binding Affinity (Ki) was calculated using the Ching Prussoff equation.

| SMILES | pKi |
| --- | --- |
| c1ccc2c(c1)CN(CC1=NCCN1)C2 [Example 1, 2-[2H-(1,3-Dihydroisoindole)methyl]-4,5-dihydroimidazole] | 8.30 |
| Clc1cccc2c1CN(CC1=NCCN1)C2 [Example 2, 2-[2H-(4-Chloro-1,3-dihydroisoindole)methyl]-4,5-dihydroimidazole] | 8.15 |
| Clc1ccc2c(c1)CN(CC1=NCCN1)C2 [Example 3, 2-[2H-(5-Chloro-1,3-dihydroisoindole)methyl]-4,5-dihydroimidazole] | 7.89 |
| c1ccc2c(c1)CCN(CC1=NCCN1)C2 [Example 4, 2-[(1,2,3,4-Tetrahydroisoquinoline)methyl]-4,5-dihydroimidazole] | 7.70 |

Next, values leading:

| pKi | SMILES |
| --- | --- |
| 6.79 | Fc1ccc2c(c1)CN(CC1=NCCN1)C2 [Example 5, 2-[2H-(5-Fluoro-1,3-dihydroisoindole)methyl]-4,5-dihydroimidazole] |
| 7.05 | COc1ccc2c(c1)CN(CC1=NCCN1)C2 [Example 6, 2-[2H-(5-Methoxy-1,3-dihydroisoindole)methyl]-4,5 dihydroimidazole dihydrochloride] |
| 7.66 | Cc1ccc2c(c1)CN(CC1=NCCN1)C2 [Example 7, 2-[2H-(5-Methyl-1,3-dihydroisoindole)methyl]-4,5-dihydroimidazole] |

Reference: patent US4863946A, “2-[2H-(1,3-dihydroisoindole)alkylene]-4,5-dihydroimidazoles and pharmaceutical compositions thereof” (Beecham Group plc, priority 1985, dated 1989)
